In PubChem BioAssay (NCI):
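Growth conditions: 96-well plates. Treatment: test compound, 48 hours, 5 concentrations. Analysis: linear interpolation between bracketing concentrations; unreached endpoints set to highest concentration. GI50 = concentration required for 50% inhibition of growth. At the TGI there is no net growth.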

What was measured:
Experiment in all cases: DTP human tumour cell line panel, 48 h
A498 renal = tested on: A498 renal
HCT-15 colon = tested on: HCT-15 colon
HOP-62 NSCLC = tested on: HOP-62 NSCLC
HOP-92 NSCLC = tested on: HOP-92 NSCLC
M14 melanoma = tested on: M14 melanoma
MALME-3M melanoma = tested on: MALME-3M melanoma
MCF7 breast = tested on: MCF7 breast
MDA-MB-231 breast = tested on: MDA-MB-231 breast
NCI-H23 lung = tested on: NCI-H23 lung
OVCAR-3 ovarian = tested on: OVCAR-3 ovarian
OVCAR-4 ovarian = tested on: OVCAR-4 ovarian
RXF 393 renal = tested on: RXF 393 renal
SF-539 CNS = tested on: SF-539 CNS
SK-MEL-28 melanoma = tested on: SK-MEL-28 melanoma
SN12C renal = tested on: SN12C renal
SNB-75 CNS = tested on: SNB-75 CNS
SR leukemia = tested on: SR leukemia
T-47D breast = tested on: T-47D breast
UACC-257 melanoma = tested on: UACC-257 melanoma

Row | SMILES | TGI (A498 renal) [µM] | TGI (HCT-15 colon) [µM] | TGI (HOP-62 NSCLC) [µM] | TGI (HOP-92 NSCLC) [µM] | TGI (M14 melanoma) [µM] | TGI (MALME-3M melanoma) [µM] | TGI (MCF7 breast) [µM] | TGI (MDA-MB-231 breast) [µM] | TGI (NCI-H23 lung) [µM] | TGI (OVCAR-3 ovarian) [µM] | TGI (OVCAR-4 ovarian) [µM] | TGI (RXF 393 renal) [µM] | TGI (SF-539 CNS) [µM] | TGI (SK-MEL-28 melanoma) [µM] | TGI (SN12C renal) [µM] | TGI (SNB-75 CNS) [µM] | TGI (SR leukemia) [µM] | TGI (T-47D breast) [µM] | TGI (UACC-257 melanoma) [µM] | GI50 (HOP-92 NSCLC) [µM]
1 | CCSc1nc(N2CCOCC2)c2cn[nH]c2n1 | 15.9 | > 100 | > 100 | > 100 | > 100 | > 100 | > 100 | > 100 | > 100 | > 100 | > 100 | > 100 | > 100 | > 100 | > 100 | > 100 | > 100 | > 100 | > 100 | 
2 | CCOC(=O)/C(O)=C(/C=NC(=S)c1ccncc1)C(=O)OCC | > 100 | > 100 | > 100 | > 100 | > 100 | > 100 | > 100 | > 100 | > 100 | > 28.8 | > 100 | > 100 | > 100 | > 100 | > 100 | > 100 | > 100 | > 100 | > 100 | > 100
3 | Brc1ccc2c(-c3nc(-c4c[nH]c5ccc(Br)cc45)cs3)c[nH]c2c1 | 11.8 | 13.1 | 29.3 | 11 | 13.8 | 19.4 | 13.9 | 18.4 | 13.3 | 28 | 24.3 | 12.4 | 18.1 | 28.7 | 16.9 | 31.4 | 13 | 31.9 | 23.6 | 
4 | O=C(Nc1ccc2nc(-c3ccccc3)cn2c1)Oc1ccccc1 | > 100 | > 100 | > 100 | > 100 | > 100 | > 100 | > 100 | > 100 | > 100 | > 100 | > 100 | 7.31 |  | > 100 | > 100 | 13.1 | > 100 | 76.9 | > 100 | 
5 | C=C1CC[C@@]2(OC1)OC1C[C@H]3[C@@H]4CC=C5C[C@@H](O)CC(OC6OCC(OC(=O)[C@@H](O)[C@@H](C)CC)C(OC(C)=O)C6OC6OC(C)C(O)C(O)C6O)[C@]5(C)[C@H]4CC[C@]3(C)C1[C@@H]2C (stereo partly specified) | 3.44 | 3.67 |  | > 10 | 4.45 | > 10 | 3.23 | 3.23 | 6.57 | 3.77 | > 10 | 4.48 | 5.21 | 4.58 | 4 | 4.84 | 4.4 | > 10 | 5.48 | 
6 | Nc1nc(Cl)cc(NCC2(CO)CC(OCc3ccccc3)C2)n1 (stereo unspecified) | 86.5 | > 100 | > 100 | > 100 |  | > 100 | > 100 | > 100 | > 100 | > 100 | > 100 | > 100 | > 100 | > 100 | > 100 | 85.2 | > 100 | 41.9 | > 100 | 
7 | O=C(CCc1ccc(O)cc1)NCCc1ccc(O)cc1 | > 100 | > 100 | > 100 | > 100 | > 100 | > 100 | > 100 | > 100 | > 100 | > 100 | > 100 | > 100 | > 100 | > 100 | > 100 |  | > 100 | > 100 | > 100 | 
8 | Nc1ccc(C(=O)Nn2c(-c3ccccc3)nc3ccccc3c2=O)cc1 | > 100 |  | > 100 | > 100 | > 100 | > 100 | > 100 | > 100 | > 100 | > 100 | > 100 | > 100 | > 100 | > 100 | > 100 | > 100 | > 100 | > 100 | > 100 | 
9 | NC(N)=N/N=C/c1c(Cl)nc2sccn12 | > 100 |  | 66.8 | 70.6 | 34.5 | 50.3 | 73.6 | > 100 | > 100 | 90.9 | 46.4 | 65.1 | 37.8 | > 100 | > 100 | > 100 | 54 | > 100 | 49 | 
10 | O=C(c1ccccc1)c1c2ccccn2c2cccc[n+]12 | > 100 | > 100 | > 100 | > 100 | > 100 | > 100 | > 100 | > 100 |  | > 100 | > 100 | > 100 | > 100 | > 100 |  | > 100 | > 100 | > 100 | > 100 | 
11 | NS(=O)(=O)c1nnc(NC(=O)c2ccccc2)s1 | > 100 | > 100 | > 100 | > 100 | > 100 | > 100 | > 100 | > 100 | > 100 | > 100 | > 100 | > 100 | > 100 | > 100 | > 100 |  | > 100 | > 100 | > 100 | 
